How the values were obtained:
[1] = system: hepatocytes (liver sections); test: Detection by DDC in vivo of liver-cell apoptosis induced by anti-Fas antibody; design: species or system mice
Procedure: Selective detection of apoptotic cells in vivo has numerous diagnostic and therapeutic clinical applications. […] Treatment of mice with anti-Fas monoclonal agonistic antibody induces apoptosis of hepatocytes, leading to animal death of within several hours. The study included intravenous administration of DDC to anti-Fas-Ab-injected mice, as well as to control, untreated animals. Fluorescence histopathological studies were then performed to evaluate the level of DDC binding.
Five-week-old male BALB/c mice were injected intravenously with 10 μg/animal of purified hamster anti-Fas nAb. Mice were then injected intravenously with 70 mg/Kg of DDC. Injections were performed 30 minutes after antibody treatment. Control animals were injected with DDC only, without antibody administration. All animals were sacrificed three hours after administration of the antibody, followed by organ removal. Liver was sectioned transversely across the mid-portion of each lobe, dipped immediately into liquid nitrogen, and then transferred to −80° C. for 24 hours. Organs were then transferred into OCT solution, and cryosections (5 μm) were prepared. These sections were taken for fluorescent microscopy. Parallel sections were stained with hematoxylin/eosin (H&E), for simultaneous evaluation of the characteristic apoptotic morphology of the cells manifesting DDC binding.

[2] = system: platelets; test: Selective binding of DDC to activated platelets, flow cytometry; assay type: cell-based; conditions: 10 μM DDC for 5 minutes
Procedure: The selective binding of DDC to activated platelets was determined using flow cytometric (FACS) analysis. Platelet-rich plasma was obtained from healthy volunteers. 10^9 of the fresh platelets were centrifuged (5 minutes, 380×g), washed and re-suspended in Tyrode's buffer (137 mM NaCl; 2.8 mM KCl; 1 mM MgCl2, 12 mM NaHCO3; 0.4 mM Na2HPO4; 5.5 mM D-glucose and 10 mM Hepes pH 7.4; 0.35% BSA). The purified platelets were kept on ice, and served as controls.
For activation, 200 μl of washed platelets were incubated with a mixture of 0.05 units/ml of thrombin and 5 μg/ml collagen for 5 min. at 37°, in the presence of 2 mM CaCl2 in a final volume of 1 ml. Following incubation, the platelets were centrifuged (2 min. at 10^4 rpm) and resuspended in 1 ml of Tyrode's buffer.
Activated and control non-treated platelets were incubated with 10 μM of DDC for 5 minutes at room temperature. […] Excitation was at 360 nm and emission was measured at 530 nm. […] While only a small fraction of the control platelets manifested binding of DDC (3.6% of the population), platelet activation caused 81% of the platelet population to acquire a marked DDC binding, reflected as a distinct shift to higher fluorescence intensity. As shown in tile FACS histogram in FIG. 21B, activation was associated with a major shift of the whole platelet population to higher fluorescence intensity. […]

[3] = system: MCF-7 breast carcinoma tumors; test: Detection by DDC of apoptosis in breast carcinoma after irradiation; assay type: in vivo, mice; conditions: following irradiation (two doses of 8 Gray) vs non irradiated
Procedure: A. Administration of DDC in-vivo: Injection of 200 μl of DDC intravenously. Following 1-2 hours, animal is sacrificed, and the desired organ is placed in a test tube or on a small plate, suitable for liquid nitrogen freezing. The plate is then covered with an aluminum foil, and transferred to liquid nitrogen. Following 5-30 minutes the specimen is being frozen to −80° C. and kept at −80° C. for at least 16 hr. B. Analysis of the Specimen: • a. Whole organ imaging Ex-vivo whole organ fluorescence imaging may be carried out on freshly excised specimen, that can be analyzed under a stereomicroscope (such as Leica MZ FL III, Leica Switzerland). DDC may be visualized using 360cx and >420cm nm filter set. Emitted fluorescence can be imaged using appropriate camera and software, such as a Leica DC 300F Distal camera and images can be processed and analyzed by Leica QWin Lite software. • b. Histological analysis, from the frozen organ or tissue, 4 μm cryosections are prepared on slides. Analysis of the tissue sections can be performed using a fluorescence microscope with a UV filter characterized by excitation at 360-370 nm (band pass) and emission at 420 nm (barrier filter) In case that staining of the examined tissue is desired, the following procedures can be applied: […]

[4] = system: red blood cells (RBC); test: Selective binding of DDC to activated red blood cells, flow cytometry; assay type: cell-based; conditions: DDC 500 μM
Procedure: Activation of intact RBC, was induced by a combined treatment with N-ethylmaleimide (NEM) and calcium ionophore, in the presence of Ca 2+.
Fresh RBC were obtained, diluted to 0.1 of their initial volume with buffer A (143 mM NaCl; 2 mM KCl; 0.1% Glucose; 10 mM NaH2PO4; pH=7.4), and washed 4 times in the above buffer. Cells were then re-suspended in buffer B (55 mM NaCl; 90 mM KCl, 0.1% glucose, 10 mM HEPES; pH=7.4). These cells were thereafter used as control cells. For activation, the cells were treated for 15-60 min at 37° C. with a combination of 2 mM CaCl, 5 μM of the Calcium ionophore A23187 and 5 mm of NEM. Cells were then washed twice with buffer B containing 0.1% of bovine serum albumin, and finally re-suspended in Buffer B containing 2 mM CaCl2 For examination of binding of DDC to the cells, DDC was dissolved in 0.1M NaPPi, pH=7.4, at a stock concentration of 1 mM. Binding assays were performed at a final concentration of 500 μM, and level of binding was evaluated by flow cytometry.

Question: Which results are given for `CN(C)c1cccc2c(S(=O)(=O)NC(CSSCC(NS(=O)(=O)c3cccc4c(N(C)C)cccc34)C(=O)O)C(=O)O)cccc12` (stereo not shown) [DDC]?
Answer: binding of DDC in liver sections ([1]; animals treated with anti-Fas Ab 10 μg/animal, 70 mg/Kg DDC i.v.): marked, specific binding; binding of DDC in liver sections ([1]; control animals, 70 mg/Kg DDC i.v. only): no significant binding; fraction of platelet population binding DDC ([2]; control platelets): 3.6%; fraction of platelet population binding DDC ([2]; platelets activated by thrombin and collagen): 81%; uptake of DDC into single cells of the tumor [3]: increased uptake; staining of red blood cells with DDC ([4]; RBC activated by NEM, calcium ionophore A23187 and Ca2+): substantial shift to higher fluorescence levels; staining of red blood cells with DDC ([4]; intact RBC): did not stain significantly
